Laboratory results taken from patent US20220387633A1, “SMART PEPTIDES AND TRANSFORMABLE NANOPARTICLES FOR CANCER IMMUNOTHERAPY” (The Regents of the University of California, priority 2019, published 2022).
Bridge positions count the residues as written; N and C are the ends. Square brackets hold non-standard residues; d marks the D form. Ends that are not written are not given here. Phe(3,5-F2) = N[C@@H](Cc1cc(F)cc(F)c1)C(=O)O; Hyp = O=C(O)[C@@H]1C[C@@H](O)CN1; BP = bis-pyrene

Legend:
4T1 tumour cells = test: Flow cytometry binding of LXY30 to 4T1 cells; set-up: species or system murine; settings: 1 μM biotinylated LXY30
Description: Experiments were repeated three times. 3×10^5 cells incubated with 1 μM biotinylated LXY30 for 30 min on ice, after washing with PBS followed by incubation with 1:500 streptavidin-PE (1 mg/mL) for 30 min, then run with flow cytometry.

[1] = molecular target: T1, HER2 receptor on the surface of HER2+ breast cancer cells (MCF-7/C6, SKBR-3, BT474) (human, UniProt P04626 23-1255); test: confocal microscopy on MCF-7/C6 cells, 8 h
T1 construct: whole, on cells; Endogenous HER2 on cell lines; MCF-7/C6 is derived from the human breast cancer line MCF-7 by fractionated irradiation; also called cell surface HER2; HER2 receptors of MCF-7/C6 cells

Molecule | binding to 4T1 tumour cells (4T1 tumour cells) | binding result [1]
cdG-Phe(3,5-diF)-G-Hyp-NcR ([dC][dD]G[Phe(3,5-F2)]G[Hyp]N[dC]R; also: cyclic peptide, ring type and places not given here) [LXY30] | did bind | –
{BP}-GGAAKYCDGFYACYMDV (disulfide 7-13 (inferred), Negative control with the HER2 ligand but without the beta-sheet forming peptide; Tested as nanoparticles of about 30 nm) | – | binds
